Assay: Human HepG2 cell viability assay in 384 well format
Assay type: toxicity, cell-based
Parameters: dose 125 nL, time 70.5 hour; concentration not given beside the values
Conditions: HepG2 cells, read-out: Inhibition

In order of rising cytotoxicity at 70.5 h:
1. O=C(NCCc1c[nH]c2ccccc12)C1(n2cnnn2)CCCCC1  -28.6%
2. O=S(=O)(Cc1ccccc1)NCc1nnc2n1CCC2  -22.1%
3. O=C1NC(C(=O)NCc2cccnc2Oc2ccccc2F)CO1 (configuration not stated)  -18.5%
4. CC(=O)Nc1nc(C(=O)NCCOc2cccc(F)c2)cs1  -17.7%
5. Cn1cc(C(=O)N2CCC(c3ncc[nH]3)CC2)cn1  -17.5%
6. COCCCNC(=O)Nc1ncc(-c2cccc(OC)c2)n1CCOC  -17.4%
7. Cc1cccc(COC2COC3(CCN(Cc4ccoc4)CC3)C2)n1 (configuration not stated)  -16.1%
8. Cn1cccc1C(=O)N1CCC2(CC1)CN(c1ccsc1)C(=O)CO2  -15.9%
9. N#CC1(C(=O)N2CCOC(c3ccc(Cl)cc3)C2)CCCC1 (configuration not stated)  -15.9%
10. CCn1ncnc1CN1CCC(CNC(=O)c2cccc(C)c2)C1 (configuration not stated)  -15.4%
11. Cc1ccsc1CCNC(=O)CCC(=O)NC1CCCC1  -15.3%
12. CC(=O)NCC(=O)N1CCN(CCN(C)C)c2ncccc2C1  -14.2%
13. O=C(c1ncccn1)N1C[C@@H]2CN(CC3CC3)CCO[C@@H]2C1  -13.4%
14. NC(=O)C1CCN(CCc2ccc(NCc3cscn3)cc2)CC1  -12.5%
15. CCCC(C#N)NC(=O)c1sccc1CC (configuration not stated)  -12.4%
16. COc1ccc(NC(=O)NC(C)Cc2ccco2)cn1 (configuration not stated)  -11.4%
17. CN(C)c1cccc(C(=O)Nc2cnn(Cc3ccncc3)c2)c1  -11.3%
18. CN(Cc1ccccc1)C(=O)CN1CCCC1c1cnn(C)c1 (configuration not stated)  -10.2%
19. Cc1nc(O)cc(CCNC(=O)CC[C@@H]2CCCN3CCCC[C@H]23)n1  -9.84%
20. CN(C)C1(CNC(=O)c2c(O)cc(Cl)cc2Cl)CCOCC1  -9.63%
21. Cc1nnc(NCCC(=O)NCc2ccccc2)c(C#N)c1C  -9.42%
22. COc1ccccc1C(C)N(C)Cc1nc2c(cnn2C)c(=O)[nH]1 (configuration not stated)  -8.94%
23. O=C(O)c1cccc(CN2CCC(c3ccnc4ccnn34)CC2)c1  -8.88%
24. COc1ccc(CCNC(=O)C(C)Nc2cc(C)ccc2C)cc1 (configuration not stated)  -8.81%
25. Cc1ccc(C)c(OCc2cc(C(=O)N(C)Cc3cnn(C)c3)no2)c1  -8.7%
26. CN(Cc1cncnc1)[C@H]1CN(C(=O)c2ccc[nH]2)[C@@H]2CCCO[C@@H]21  -8.37%
27. CCc1ccc(CN2CCN(c3cccc(OC)c3)C(=O)C2)nc1  -8.23%
28. CC(NC(=O)CNc1cc2c(cc1Cl)OCCO2)c1ccco1 (configuration not stated)  -8.18%
29. O=C([C@@H](O)Cc1ccccc1)N1CCCn2cncc2C1  -7.92%
30. CC(C)NC(=O)[C@H]1C[C@@H]2CN(C(=O)NCc3ccccc3)C[C@H]1O2  -7.91%
31. O=C(O)c1ccccc1-c1ccc(CN2CCOCC2)cn1  -7.9%
32. Cc1noc(C)c1CN1C[C@H](OCC2CC2)[C@H]2COC[C@H]21  -7.4%
33. Cc1cccc(CN2CCN(C(=O)c3ccc(C)[nH]c3=O)CC2)c1  -7.34%
34. O=C(NCC1(c2cccc(F)c2)CC1)N1CCC2(CCOC2)C1 (configuration not stated)  -7.28%
35. Cn1cnnc1CNC(=O)Nc1cc(C(F)(F)F)c[nH]c1=O  -7.22%
36. Cc1ccc(NC(=O)C(C)N2CCCN(c3nccs3)CC2)c(C)c1 (configuration not stated)  -7.1%
37. CN(CCCO)C(=O)c1ccc2c(c1)nc(N1CC[C@H](O)C1)n2C  -7.06%
38. Cc1ccc(C)n1-c1ccc(C(=O)NCCNc2ncccn2)cc1  -7.02%
39. CCC(Cn1ccc2[nH]c(=O)c(C#N)cc2c1=O)OC (configuration not stated)  -6.98%
40. O=C([C@H]1CN(Cc2cccnc2)C[C@H]2OCC[C@@H]12)N1CCCO1  -6.93%
41. CN1C[C@@H]2CC[C@H](CC1=O)N2C(=O)c1cc2ccccc2[nH]c1=O  -6.85%
42. CCn1cc(S(=O)(=O)NCC(OC)c2cccc(Cl)c2)cn1 (configuration not stated)  -6.64%
43. Cc1nc2c(c(NC(C)c3nnn[nH]3)n1)Cc1ccccc1OC2 (configuration not stated)  -6.63%
44. Cc1ccccc1CCCN1CCS(=O)(=O)CC1C (configuration not stated)  -6.59%
45. Cc1nc2n(n1)CC(Nc1ccnc(-c3ccccc3)n1)CC2 (configuration not stated)  -6.55%
46. CC(=O)Nc1nc(C(=O)NC(C)c2cccnc2)cs1 (configuration not stated)  -6.5%
47. CCOc1cc(CN(C)CCCO)ccc1OC(F)F  -6.49%
48. CCOC(=O)N1C[C@H]2CC[C@@H]1CN(Cc1ccccc1)C2  -6.47%
49. COc1ccc(CN2CCC3(CC2)CCN(c2cnn(C)c2)C3=O)cc1  -6.09%
50. CN(C)C(=O)CN1CCC2(COCc3cnc(-c4cccnc4)nc32)C1 (configuration not stated)  -5.78%
51. O=C(c1cnn2c1OCCC2)N1CCN(C(=O)C2CCCO2)CC1 (configuration not stated)  -5.75%
52. CCOc1cc(CNC(=O)NC2CC=CC2)ccc1OC(F)F  -5.65%
53. COc1ccccc1-c1cc(C(=O)N2CCCC2)c2cnn(C)c2n1  -5.55%
54. Cc1nc(C)n(CC2CCCN2c2ncnc3ccsc23)n1 (configuration not stated)  -5.53%
55. O=C(CN1CCN(c2ncnc3c2CCNCC3)CC1)N1CCCCC1  -5.29%
56. CC[C@H]1CN(C(=O)CCn2c(C)cccc2=O)CC[C@@]1(C)O  -4.82%
57. CCC[C@H]1CN(S(=O)(=O)c2ccc(-c3c(C)noc3C)s2)C[C@@H]1N  -4.66%
58. COc1cccc(Cn2ncnc2CCC(C)N2CCN(C)CC2)c1 (configuration not stated)  -4.48%
59. Cc1ccccc1C1CCN(CCNC(=O)CS(C)(=O)=O)C1 (configuration not stated)  -4.32%
60. CSCCC(NC(N)=O)C(=O)NCc1c(C)nn(-c2ccccc2)c1C (configuration not stated)  -4.27%
61. Cc1ccc(C(=O)NCC2CCCCO2)c(=O)[nH]1 (configuration not stated)  -3.97%
62. CCCOc1cc(F)ccc1NC(=O)NCc1noc(C)n1  -3.88%
63. Cc1nc2cc(C(=O)N3C[C@@H](C(=O)O)[C@H](c4ccncc4)C3)ccc2[nH]1  -3.63%
64. c1ncc(-c2ccc(C3CNCCO3)nc2)cn1 (configuration not stated)  -3.27%
65. O=C(CCc1cccnc1)N1CCCC(n2cncn2)C1 (configuration not stated)  -2.85%
66. CCN(Cc1nnnn1C1CC1)c1cc(C)ccc1C  -2.4%
67. O=C(c1ccccc1F)N1CCOC(c2nc(-c3ncccn3)no2)C1 (configuration not stated)  -2.38%
68. CC(C)(C)CC(=O)NCC(=O)Nc1ccn(CCCn2ccnc2)n1  -2.26%
69. CC(c1nc(C2CC2)no1)N1CCN(Cc2noc(C3CC3)n2)CC1 (configuration not stated)  -2.08%
70. CCOc1cc(C)nc(N2CCN(C(=O)C(C)NC(C)=O)CC2)n1 (configuration not stated)  -1.89%
71. Cc1nc(CN2CCO[C@@H]3CC(COc4ccccn4)C[C@H]32)cs1 (some centres not stated)  -1.88%
72. CSCC(C)(O)CNc1ccccn1 (configuration not stated)  -1.72%
73. CSc1[nH]nc(NC(=O)c2ccncc2)c1C#N  -1.59%
74. c1ccc(C(CNc2ncccn2)N2CCOCC2)nc1 (configuration not stated)  -1.54%
75. Cn1c(CO)nnc1CC1CCN(Cc2ccc(C#N)cc2)CC1  -1.35%
76. Cc1nc(N2CCOc3ccc(CO)cc3C2)c2nc(C)oc2n1  -1.34%
77. O=C(c1ccc2[nH]nnc2c1)N1C[C@H](O)[C@]2(CCCO2)C1  -1.24%
78. O=C(CC1CCCC1)N1CCCC1c1nc(O)cc(-c2ccccn2)n1 (configuration not stated)  -1.16%
79. Cn1c(=O)ccn(CC(=O)NCC2Cc3ccccc3O2)c1=O (configuration not stated)  -0.993%
80. Cc1ccc(NC(=O)c2nc3c(s2)CCCN3C(C)C)cn1  -0.97%
81. Cc1cnc2[nH]c(C(F)(F)F)c(CN3CCSCC3)c2c1  -0.92%
82. CCn1nc(Br)nc1Sc1ccccc1NC(C)=O  -0.88%
83. N#Cc1cc(Cl)ccc1N1CCOC(C(N)=O)C1 (configuration not stated)  -0.791%
84. CCN(CC)C(CNC(=O)c1ccc(S(C)(=O)=O)cc1)c1ccco1 (configuration not stated)  -0.309%
85. Cc1nn(C)c(N(C)C)c1CNCc1ccccc1CO  -0.166%
86. Cc1nc(CN2CC3(CCN(c4ncc(F)cn4)C3)CC2=O)cs1 (configuration not stated)  -0.115%
87. CNc1cc(C2CCCN(C(=O)c3ccc(=O)[nH]n3)C2)ccn1 (configuration not stated)  -0.0309%
88. CC(C)(C)c1ccc2c(c1)CCN2C(=O)c1nc(=O)[nH][nH]1  0.34%
89. CCOC(=O)NC1CCCN(c2cncc(Br)c2)C1 (configuration not stated)  0.767%
90. CC(C)(CNc1ccc(C#N)c(C(F)(F)F)c1)C(N)=O  2.06%
91. Cc1cc(C2CCCN2C(=O)c2csc(-c3cnn(C)c3)n2)on1 (configuration not stated)  2.44%
92. CCCN(C(=O)c1ccccn1)c1nc2c(s1)CCc1c-2cnn1C  3.64%
93. CN1N=C(C(=O)N2CCCN(c3ncccc3C#N)CC2)CCC1=O  3.72%
94. O=S(=O)(CCCN1CCCC(Cn2cncn2)C1)c1ccccc1 (configuration not stated)  4.82%
95. CCC[C@@H]1CN(S(=O)(=O)c2ccc(OC)c(OC)c2)C[C@H]1NC(C)=O  6.19%
96. COc1ccnc(N2CCN(C(=O)CN3CCOCC3)CC2)n1  8.59%
97. COc1cc(N2CCN(Cc3ccsc3)C(CCO)C2)nc(N)n1 (configuration not stated)  9.1%
98. CNC(=O)c1cc(C)n(-c2cccc(OC)c2)c1C  11%
99. Cc1cc(N2CCC(NC(=O)CCc3ccco3)CC2)nc(C)n1  11.4%
100. CCCn1c(NCCc2ccccc2)nc2c(C)nn(C)c2c1=O  11.6%
101. CC(C)CN1CC(C(=O)NCc2ccnc(-n3cccn3)c2)CC1=O (configuration not stated)  12.8%
102. COc1ccccc1CN1C[C@@H]2CN(Cc3cccnc3)CCO[C@@H]2C1  12.8%
103. CCOc1ccccc1C1=CCN(C(=O)C2CCN(C)C(=O)C2)CC1 (configuration not stated)  16.3%
104. CCN(C(=O)C(C)C)C(c1cccnc1)c1ccc2c(c1)CCO2 (configuration not stated)  18.4%
105. CCCc1ccc2oc(C(=O)N3CCN(CCC(N)=O)CC3)c(C)c2c1  19.5%
106. O=C1N[C@@H]2CCN(C(=O)C3CCC3)[C@@H]2C(=O)N1c1ccc(F)cc1  21.8%
107. O=C(CN1CC(n2cccn2)C1)NCCCN1CCCC1=O  22.2%
108. CC(C)n1ccnc1C1CCN(Cc2ccc(C(F)(F)F)c(F)c2)CC1  23.4%
109. Cc1ccc(-c2nc(C3CCN(C(=O)c4cnn(C)c4)CC3)no2)cn1  24.5%
110. COc1ccc(C(O)CNC(=O)Nc2cc(C)nn2C)cc1 (configuration not stated)  25.3%
111. O=C(NCC(O)c1ccsc1)Nc1cccs1 (configuration not stated)  25.4%
112. CCN1CCC(NC(=O)CN2CCCCC2Cn2cc(C)cn2)CC1 (configuration not stated)  53.1%

Source: ChEMBL document CHEMBL3507680, “University of Dundee, Gates Library screen for HepG2 cell viability”
